# Measured values published in patent publication US11299472B2, “Fumarate salt of (R)-3-(1-(2,3-dichloro-4-(pyrazin-2-yl)phenyl)-2,2,2- trifluoroethyl)-1-methyl-1-(1-methylpiperidin-4-yl) urea, methods of preparation, and uses thereof” (Helsinn Healthcare SA, priority 2017, dated 2022).
# Key:
# [1] = Rat pharmacokinetic study, HM04 free base vs HM04 fumarate salt (Example 9); assay type: in vivo, male Sprague Dawley rats; conditions: 3 mg/kg oral, mean ± S.D., n=3
# Protocol: The pharmacokinetics of HM04 in plasma of male Sprague Dawley rats dosed with a single oral administration of 3 mg/kg HM04 (based on the weight of the free base) formulated in a solution of 10% DMAC, 6% Solutol, and 84% PBS using either the HM04 free base or HM04 fumarate salt were compared. Blood samples were withdrawn at set time intervals and plasma concentration of HM04 was measured by LC-MS/MS. A comparison of the plasma concentration of HM04 (ng/mL) over time in rats dosed orally with HM04 free base and HM04 fumarate salt is provided in FIG. 17.
# [2] = Dog pharmacokinetic study, HM04 free base vs HM04 fumarate salt (Example 9); assay type: in vivo, male Beagle dogs; conditions: for HM04 plasma concentration: 2 mg/kg oral, mean ± S.D., n=3
# [3] = Rat pharmacokinetic study, single oral HM04 fumarate salt 3, 10, 30 mg/kg (Example 10); assay type: in vivo; conditions: male, Sprague Dawley, plasma, 3 mg/kg intravenous, four rats, read-out: mean AUC following intravenous administration
# [4] = target: T1, human GHSR1a receptor (Homo sapiens, UniProt Q92847); assay: Antagonist FLIPR assay in HEK293 cells; assay type: cell-based; conditions: HEK293 cells expressing human GHSR1a, in duplicate, HM04 tested as fumarate salt
# T1 construct: expressed in transfected cells; host or cells: HEK293
# T1 sequence (Q92847 whole entry): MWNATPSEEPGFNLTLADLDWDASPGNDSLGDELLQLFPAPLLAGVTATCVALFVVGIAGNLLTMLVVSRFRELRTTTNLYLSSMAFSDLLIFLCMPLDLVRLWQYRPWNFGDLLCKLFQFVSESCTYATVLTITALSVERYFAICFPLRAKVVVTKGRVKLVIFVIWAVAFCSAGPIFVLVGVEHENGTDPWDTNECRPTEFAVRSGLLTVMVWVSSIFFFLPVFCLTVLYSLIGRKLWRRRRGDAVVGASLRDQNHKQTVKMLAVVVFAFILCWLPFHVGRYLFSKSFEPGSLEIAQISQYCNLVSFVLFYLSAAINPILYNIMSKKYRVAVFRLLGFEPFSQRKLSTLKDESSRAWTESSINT
# Protocol: The compounds were diluted with 100% DMSO to make 30 mM stock. On the test day, serial dilutions were prepared starting from the stock solution. For the FLIPR assay: 1) 8 μl of DMSO was added to 2 μl of compound stock solution (30 mM) to produce 10 μl of 6 mM solution; half-fold serial dilutions of the 6 mM solution were produced to generate ten doses; 2) test solutions were obtained by diluting the stock solutions 1/40 in assay buffer (DMSO concentration 2.5%). […]
# (§1) For the agonist and antagonist activity study, HEK293 cells stably expressing human GHSR1a receptor were used in a (FLIPR) assay. […] Fluorescence signal was detected with FLIPR at room temperature according to standard settings for 10 minutes before cells were exposed to 10 μl of 5× working concentrations of agonists (compound added by FLIPR). The fluorescence signal was detected in the subsequent 3 minutes (antagonist mode).
# Data were reported as relative light units (RLUs) and analyzed using GraphPad Software Inc. version 6. The half maximal inhibitory concentration (IC50) measured for HM04 and R011 were calculated by non-linear regression analysis.
# [5] = target: T1, human GHSR1a receptor; assay: Agonist FLIPR assay in HEK293 cells; assay type: cell-based; conditions: FLIPR agonist mode, concentrations up to 10 μM
# Protocol: (§2) The compounds were diluted with 100% DMSO to make 30 mM stock. On the test day, serial dilutions were prepared starting from the stock solution. For the FLIPR assay: 1) 8 μl of DMSO was added to 2 μl of compound stock solution (30 mM) to produce 10 μl of 6 mM solution; half-fold serial dilutions of the 6 mM solution were produced to generate ten doses; 2) test solutions were obtained by diluting the stock solutions 1/40 in assay buffer (DMSO concentration 2.5%). For the IP-1 assay: 1) 29 μl of DMSO was added to 1 μl of compound stock solution (30 mM) to produce 30 μl of 1 mM solution; half-fold serial dilutions of the 1 mM solution were produced to generate 10 doses; 2) test solutions were obtained by diluting the stock solutions 1/100 in assay buffer (DMSO final concentration 1%).
# as §1
# [6] = target: T1, human GHSR1a receptor; assay: Inositol 1 phosphate (IP-1) inverse agonist assay; assay type: cell-based; conditions: IP-1 assay
# Protocol: as §2
# For the inverse agonist activity study, the same procedure described above was followed up to the day of the test. On the test day, the medium was removed by centrifuging at 700 rpm for 30 seconds and 20 μl/well of assay buffer containing the HM04 or R011 was added. The assay plates were incubated at 37° C. in the dark for 1 hour. IP1-d2 (5 μl) and AB-Cryp (5 μl) were sequentially added to all wells using multidrop Combi. The plate was incubated at room temperature for 1 hour and read on EnVision at 620 nm and 665 nm.
# [7] = system: ghrelin-induced increase of GH; assay: Ghrelin-induced increase of growth hormone in rats; assay type: in vivo; conditions: 30 mg/kg HM04 fumarate salt p.o. 2 hours before 15 μg/kg ghrelin i.v., 15 minutes after ghrelin
# Protocol: Rats were divided into four groups: 1) 1 ml/kg saline plus 10 ml/kg 0.5% CMC p.o. (n=6); 2) 15 μg/kg ghrelin i.v. plus 10 ml/kg 0.5% CMC p.o. (n=6); 3) 30 mg/kg HM04 fumarate salt p.o. 2 hours before 15 μg/kg ghrelin i.v. (n=6); 4) 10 mg/kg ghrelin antagonist R011 i.p. 30 minutes before 15 μg/kg ghrelin i.v. (n=6). Blood was collected as 100 μl samples at time 0 and at 15 minutes after ghrelin injection. Rats were anesthetized with 64.8 mg/kg sodium pentobarbital. A catheter filled with heparinized saline solution was inserted in the left femoral artery for blood collection and fitted with an extension tube, 1-mL sampling syringe, and a 3-way cock to allow excess blood to return.
# Plasma levels of growth hormone (GH) were determined using Rat GH ELISA (Millipore, Catalog No. EZRMGH-45K). Measurements were performed in duplicate. […] One-way and two-way ANOVA test was used to compare differences between groups. All values are presented as mean±SEM. One-way ANOVA was performed followed by Turkey's post hoc test where significance was indicated by p values<0.05 or p values<0.01.
# [8] = system: Snord116+/− (Het) mice and wild-type (WT) littermates; assay: Glucose tolerance in Prader-Willi mouse model; assay type: in vivo
# Source text: The effect of HM04 fumarate salt on food intake behavior and glucose tolerance was investigated in the Snord116+/−(Het) mouse genetic model of Prader-Willi syndrome (Het mouse) compared to wild-type (WT) littermates. Since D2R agonists suppress food intake, the FDA approved D2R agonist cabergoline was used as an experimental control. Phenotypic characteristics of this PWS mouse model include hyperphagia, postnatal growth retardation, high ghrelin, and low growth hormone. Ding F., et al. SnoRNA Snord116 (Pwcr1/MBII-85) deletion causes growth deficiency and hyperphagia in mice. PloS one. 2008; 3(3):e1709. These PWS mice eat more frequently than WT littermates, particularly during the light cycle and are more motivated to work for food (more level presses) (data not shown).
SMILES,HM04 plasma concentration ([1]; 0.50 hours) [ng/mL],HM04 plasma concentration ([1]; 1 hour) [ng/mL],HM04 plasma concentration ([1]; 2 hours) [ng/mL],HM04 plasma concentration ([1]; 8 hours) [ng/mL],"AUC(0-t) ([1]; male, Sprague Dawley, plasma) [ng·h/mL]","Tmax ([1]; male, Sprague Dawley, plasma) [min]",HM04 plasma concentration ([2]; 1 hour) [ng/mL],HM04 plasma concentration ([2]; 4 hours) [ng/mL],HM04 plasma concentration ([2]; 8 hours) [ng/mL],HM04 plasma concentration ([2]; 24 hours) [ng/mL],"AUC ([2]; male, Beagle, plasma, 1 mg/kg intravenous, three dogs, read-out: mean AUC following intravenous administration) [ng·h/mL]",AUC [3] [ng·h/mL],IC50 [4] [nM],agonist activity [5],inverse agonist activity [6],inhibition of ghrelin-induced increase of GH [7] [%],glucose tolerance ([8]; Het mice),glucose tolerance ([8]; WT mice)
"CN1CCC(N(C)C(=O)N[C@H](c2ccc(-c3cnccn3)c(Cl)c2Cl)C(F)(F)F)CC1.O=C(O)/C=C/C(=O)O [HM04 fumarate salt, (R)-3-(1-(2,3-dichloro-4-(pyrazin-2-yl)phenyl)-2,2,2-trifluoroethyl)-1-methyl-1-(1-methylpiperidin-4-yl)urea fumarate salt]",325.9 ± 187.8,201.0 ± 38.7,173.9 ± 12.2,42.3 ± 2.5,970 ± 147,49.8 ± 17.4,227.4 ± 52.2,152.9 ± 56.9,70.2 ± 41.0,13.1 ± 13.2,1130 ± 364,1760 ± 196,,,,,,
"CN1CCC(N(C)C(=O)N[C@H](c2ccc(-c3cnccn3)c(Cl)c2Cl)C(F)(F)F)CC1 [HM04, (R)-3-(1-(2,3-dichloro-4-(pyrazin-2-yl)phenyl)-2,2,2-trifluoroethyl)-1-methyl-1-(1-methylpiperidin-4-yl)urea]",,,,,,,,,,,,,7.31,No agonist activity was observed,did not show a clear significant inverse agonist activity,35,did not show an improvement in glucose tolerance,an effect was observed
